The text below walks through data of US20140134139A1, “CD34+ CELLS AND METHODS OF USE” (NORTHWESTERN UNIVERSITY, priority 2012, published 2014).

Data set [1] relates to Lineage-Sca-1+CD31+ EPCs. Briefly: Cell viability analysis of drug-treated mouse EPCs. It is filed as cell-based. The settings on record: 500 nM 5′ Aza, 1 mM VPA, 1 mM BIX-01294; 48 hours; data not shown. How it is done:
In an attempt to increase their plasticity, 2.0×10^5 sorted EPCs were seeded on fibronectin coated plates then treated for 48 hours with individual or combinations of epigenetic modifying agents; 500 nM 5′-Azacytidine (5′ Aza; DNA methyltransferase inhibitor), 1 mM valproic acid (VPA; histone deacetylase inhibitor), […] (histone methyltransferase inhibitor). Drug dosages were verified as non-toxic by cell viability analysis (data not shown). […] All mRNA expression was normalized to 18S RNA then presented as a fold difference compared to untreated EPCs. […] Since the treated cells express cardiomyocyte genes at basal level they may be more inclined to differentiate into mature CMCs under conditions conducive for CMC differentiation. Similar changes in gene expression were found in human CD34+ cells with the regimen of 2.5 mM VPA followed by 500 nM 5′ Aza (FIG. 2A). BIX-01294 treatment, even at reduced doses, was toxic to human CD34+ cells and was therefore not used in human cell studies.

Another data set deals with SVEC cells. Briefly: ChIP assay of acetylated H3K9 at Oct4 and cardiomyocyte gene promoters in SVEC cells. It is filed as cell-based, mouse. The following applies: p<0.05.
The test system of another data set is Nkx2.5 promoter. Description: Pyrosequencing methylation analysis of the Nkx2.5 promoter in SVECs. It is filed as cell-based, mouse. The settings on record: treated vs control SVEC cells.
The subject of data set [2] is murine endothelial cells (SVEC). Briefly: Western blot of histone acetylation and methylation in SVEC cells. The class given is cell-based, mouse. The following applies: 1 μM BIX-01294, compared to untreated control cells.
Procedure: Cell lysate from 1.5×10^7 SVEC cells was prepared using whole cell lysate buffer (50 mM Tris-HCl, 0.5% Igepal (NP-40), 150 nM NaCl). […] Equal protein loading in each lane was verified using antibodies against β-actin and changes in modified histone levels were quantified by first normalization to total H3 or H4 protein.
Therefore, murine endothelial cells (SVEC) were treated with either 1 μM BIX-01294 or staggered addition of 1 mM VPA then 500 nM 5′-Azacytidine for 48 h and histone acetylation and methylation were assessed by western blot.
Data set [3] concerns Lineage-Sca-1+CD31+ EPCs. Description: Real-time PCR gene expression in drug-treated sorted mouse EPCs. The class given is cell-based. How it is done:
Relative mRNA expression of target genes was normalized to the endogenous 18S control gene.
Lineage-Sca-1+CD31+ EPCs were cultured on 5 μg/mL human fibronectin coated plates in DMEM supplemented with 10% FBS and penicillin/streptomycin at 37° C. with 5% CO2. Human CD34+ cells were cultured in X-VIVO (Lonza) media supplemented with 0.5% human serum albumin, 50 ng/mL Flt3 ligand, 20 ng/mL stem cell factor, 50 ng/mL VEGF, and 10 ng/mL thrombopoietin. Either cell type was treated with VPA (2.5 mM) for 24 hours then 500 nM 5′ Aza was added to the culture media and cells remained in culture for an additional 24 hours (48 hours total). Different ranges of doses were tested with above doses being determined as the optimal doses not only for reprogramming but also for displaying minimal cellular toxicity. Further, a staggered treatment protocol, that is, contacting an EPC culture with a first epigenetic programming agent (for example, VPA) for a first period of time (for example, 24 hr), followed by contacting the EPC culture with a second epigenetic programming agent (for example, 5′-Aza) for a second period of time (for example, 24 hr) was determined to be a highly preferred protocol for reprogramming. Mouse EPCs were also cultured with 1 μM BIX-01294 for 48 hours in the same culture conditions. […]

Another data set has as its system human CD34+ cells. Briefly: Toxicity to human CD34+ cells. The class given is cell-based. The following applies: similar drug doses as for mouse EPCs and even 2-fold reduced levels. The protocol:
In an attempt to increase their plasticity, 2.0×10^5 sorted EPCs were seeded on fibronectin coated plates then treated for 48 hours with individual or combinations of epigenetic modifying agents; 500 nM 5′-Azacytidine (5′ Aza; DNA methyltransferase inhibitor), 1 mM valproic acid (VPA; histone deacetylase inhibitor), 1 mM BIX-01294 (histone methyltransferase inhibitor). Drug dosages were verified as non-toxic by cell viability analysis (data not shown). […] All mRNA expression was normalized to 18S RNA then presented as a fold difference compared to untreated EPCs. […]
The epigenetic reprogramming by these small molecules was evaluated in human CD34+ cells to determine whether their reprogramming potential is limited to mouse EPCs or whether it can also be translated to human EPCs (bone marrow mobilized CD34+ cells), currently used in clinical trials (Losordo D W et al., Circ. Res. 109:428-436 (2011)). CD34+ cells, obtained from healthy donors and provided by Baxter healthcare, were treated or not with VPA (2.5 mM) and 5′ Aza (500 nM) and mRNA expression of pluripotency and cardiomyocyte-specific transcripts was determined. […] In order to determine enhanced functional capacity of reprogrammed CD34+ cells in the repair of post-infarct myocardium, a previously determined sub-therapeutic dose of 2.5×10^4 cells was used for post-AMI transplantation in immune-e-deficient mouse AMI model. […]

For the compound `CCCC(CCC)C(=O)O` [VPA, valproic acid], in the data set on Lineage-Sca-1+CD31+ EPCs [1], the “toxicity of drug dosages by cell viability analysis” value is given as “non-toxic”.

With `COc1cc2nc(N3CCCN(C)CC3)nc(NC3CCN(Cc4ccccc4)CC3)c2cc1OC` [BIX-01294], the “acetylated H3K9 bound to cardiac-specific gene promoters (Actn2, Ryr2, TnnT2)” value in the data set with SVEC cells (compared to non-treated cells) was “more heavily bound by acetylated H3K9”. For the same compound, the “acetylated H3K9 bound to the core (CP) and regulatory promoter (RP) regions of Oct4” value in the data set on SVEC cells (compared to untreated controls) is recorded as “significant increase”. Also, the “CpG methylation patterns of Nkx2.5” value with Nkx2.5 promoter is “no significant difference”. Further, the “reduction of H3K9 di-methylation” value in data set [2] is listed as 64.3±11%. For the same compound, the “toxicity of drug dosages by cell viability analysis” value in the data set on Lineage-Sca-1+CD31+ EPCs [1] was “non-toxic”. Also, the “induction of cardiomyocyte-specific transcripts” value with Lineage-Sca-1+CD31+ EPCs [3] (real-time PCR immediately after treatment, without cardiomyocyte differentiation conditions) is “de novo induction of cardiomyocyte-specific transcripts”. Moreover, in the data set with Lineage-Sca-1+CD31+ EPCs [3] (real-time PCR, normalized to 18S RNA, 48 hours with 1 mM BIX-01294, or 24 hours 1 mM VPA then 24 hours 500 nM 5′ Aza), the “Oct4 expression, fold difference compared to untreated EPCs” value amounted to 9.5±2.0 fold. Also, the “toxicity to human CD34+ cells” value in the data set with human CD34+ cells is given as “toxic”.
